# According to the Kinase Knowledgebase extract (Sharma et al. 2016):
# pIC50: −log10 of the molar value.
# Target: EGFR (UniProt P00533)
# Sequence (P00533 whole entry, looked up): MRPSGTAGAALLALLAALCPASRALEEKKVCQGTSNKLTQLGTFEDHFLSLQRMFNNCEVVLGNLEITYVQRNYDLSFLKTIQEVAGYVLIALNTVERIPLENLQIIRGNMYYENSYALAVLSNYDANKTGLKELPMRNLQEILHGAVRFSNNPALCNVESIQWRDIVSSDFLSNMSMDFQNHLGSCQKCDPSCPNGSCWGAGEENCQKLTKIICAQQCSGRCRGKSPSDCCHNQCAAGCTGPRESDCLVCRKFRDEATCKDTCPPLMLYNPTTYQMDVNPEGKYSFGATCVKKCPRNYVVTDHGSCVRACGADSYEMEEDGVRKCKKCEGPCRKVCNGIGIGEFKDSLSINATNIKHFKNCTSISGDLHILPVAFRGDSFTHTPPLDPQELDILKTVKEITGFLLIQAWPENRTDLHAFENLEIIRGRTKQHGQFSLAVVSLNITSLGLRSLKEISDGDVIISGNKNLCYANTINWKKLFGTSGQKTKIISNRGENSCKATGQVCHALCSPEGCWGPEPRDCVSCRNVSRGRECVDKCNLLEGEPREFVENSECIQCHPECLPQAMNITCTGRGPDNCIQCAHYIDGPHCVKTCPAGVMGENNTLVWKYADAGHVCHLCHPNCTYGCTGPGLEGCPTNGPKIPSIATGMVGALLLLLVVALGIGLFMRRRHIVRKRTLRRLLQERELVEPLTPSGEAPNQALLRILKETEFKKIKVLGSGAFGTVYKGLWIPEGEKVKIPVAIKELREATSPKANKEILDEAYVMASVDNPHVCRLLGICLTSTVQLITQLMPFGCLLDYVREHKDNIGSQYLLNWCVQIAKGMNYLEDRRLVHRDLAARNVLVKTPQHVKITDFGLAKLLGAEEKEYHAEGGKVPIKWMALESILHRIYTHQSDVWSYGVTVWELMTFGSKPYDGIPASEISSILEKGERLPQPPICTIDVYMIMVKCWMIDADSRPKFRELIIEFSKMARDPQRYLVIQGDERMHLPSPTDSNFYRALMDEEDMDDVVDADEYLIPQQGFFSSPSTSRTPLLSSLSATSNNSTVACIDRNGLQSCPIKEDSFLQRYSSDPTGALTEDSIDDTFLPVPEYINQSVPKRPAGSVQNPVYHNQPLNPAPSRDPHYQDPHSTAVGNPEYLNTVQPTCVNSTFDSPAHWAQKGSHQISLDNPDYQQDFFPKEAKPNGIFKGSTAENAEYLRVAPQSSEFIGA
row,Compound,pIC50
1,COc1cc(Nc2ccnc(Nc3ccc(OCc4ccccc4)cc3)n2)cc(OC)c1OC,≤ 5.00
2,Cc1cccc(Nc2nccc(Nc3cccc(Br)c3)n2)c1,≤ 5.00
3,COc1cc(Nc2nccc(-n3ccc4ccccc43)n2)cc(OC)c1OC,≤ 5.00
4,Cc1cccc(Nc2ccnc(Nc3cccc(Br)c3)n2)c1,≤ 5.00
5,COc1cc(Nc2ccnc(-n3ccc4ccccc43)n2)cc(OC)c1OC,≤ 5.00
6,Clc1cccc(Nc2ccnc(Nc3cccc(Cl)c3)n2)c1,≤ 5.00
7,COc1cc(Nc2nccc(-n3c(N)nc4ccccc43)n2)cc(OC)c1OC,≤ 5.00
8,COc1cc(Nc2nccc(-n3c(=O)[nH]c4ccccc43)n2)cc(OC)c1OC,≤ 5.00
9,COc1cc(Nc2nccc(-n3ccc(-c4ccc(Cl)cc4)n3)n2)cc(OC)c1OC,≤ 5.00
10,COc1ccc(Nc2ccnc(Nc3ccc(OC)c(OC)c3)n2)cc1OC,≤ 5.00

# Continued, values first:
row,pIC50,Compound
1,> 5.82,COc1cc(Nc2nccc(Nc3ccc4c(cnn4Cc4ccccc4)c3)n2)cc(OC)c1OC
2,≤ 5.00,COc1cc(Nc2nccc(-n3c(=O)oc4ccccc43)n2)cc(OC)c1OC
3,5.00 to 5.30,COc1cc(Nc2nccc(Nc3cc(C(C)(C)C)n[nH]3)n2)cc(OC)c1OC
4,5.00 to 5.30,COc1cc(Nc2ccnc(Nc3ccc(Oc4ccccc4)cc3)n2)cc(OC)c1OC
5,5.00 to 5.30,COc1ccc(-c2ccn(-c3ccnc(Nc4cc(OC)c(OC)c(OC)c4)n3)n2)cc1
6,5.30 to 5.82,COc1cc(Nc2ccnc(Nc3ccc4c(cnn4Cc4ccccc4)c3)n2)cc(OC)c1OC
